# Test results published in ChEMBL document CHEMBL1201862, “PubChem BioAssay data set” (2004).
# Active and inactive are the calls of the source.
# Experiments:
# Type in all cases: functional
# [1] = target: Neuropeptides B/W receptor type 1 (Homo sapiens, UniProt P48145); experiment: human NPBW1 receptor blockade, IC50 – cell-based, fluorescence, dose response, set 6, late-stage follow-up (AID 588583)
# [2] = target: Melanin-concentrating hormone receptor 1 (Homo sapiens, UniProt Q99705); experiment: Late-stage fluorescence-based counterscreen for antagonists of the G-protein coupled receptor 7 (GPR7): cell-based dose response assay to identify antagonists of the melanin-concentrating hormone receptor 1 (MCHR1) Set 6.
# Sequence of Melanin-concentrating hormone receptor 1 (Q99705 whole entry): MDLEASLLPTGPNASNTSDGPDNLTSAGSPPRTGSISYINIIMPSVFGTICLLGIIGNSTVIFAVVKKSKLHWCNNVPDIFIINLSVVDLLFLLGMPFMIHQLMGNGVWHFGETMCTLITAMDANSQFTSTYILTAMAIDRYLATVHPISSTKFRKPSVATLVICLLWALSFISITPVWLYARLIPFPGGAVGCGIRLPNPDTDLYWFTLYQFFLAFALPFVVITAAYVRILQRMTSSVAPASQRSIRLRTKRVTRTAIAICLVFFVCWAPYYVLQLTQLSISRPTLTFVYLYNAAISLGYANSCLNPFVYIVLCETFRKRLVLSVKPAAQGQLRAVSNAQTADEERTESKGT
# Vero = experiment: viability of Vero cells under compound – cytotoxicity control for flavivirus capping enzyme inhibitors (AID 588742); conditions: Chlorocebus sabaeus
# Genome polyprotein = Genome polyprotein (dengue virus type 2, UniProt P29990); experiment: flavivirus cap methylation enzyme inhibition – biochemical, confirmation dose response, primary screen (AID 588689)
# Sequence of Genome polyprotein (P29990 2492-3391 limits assumed): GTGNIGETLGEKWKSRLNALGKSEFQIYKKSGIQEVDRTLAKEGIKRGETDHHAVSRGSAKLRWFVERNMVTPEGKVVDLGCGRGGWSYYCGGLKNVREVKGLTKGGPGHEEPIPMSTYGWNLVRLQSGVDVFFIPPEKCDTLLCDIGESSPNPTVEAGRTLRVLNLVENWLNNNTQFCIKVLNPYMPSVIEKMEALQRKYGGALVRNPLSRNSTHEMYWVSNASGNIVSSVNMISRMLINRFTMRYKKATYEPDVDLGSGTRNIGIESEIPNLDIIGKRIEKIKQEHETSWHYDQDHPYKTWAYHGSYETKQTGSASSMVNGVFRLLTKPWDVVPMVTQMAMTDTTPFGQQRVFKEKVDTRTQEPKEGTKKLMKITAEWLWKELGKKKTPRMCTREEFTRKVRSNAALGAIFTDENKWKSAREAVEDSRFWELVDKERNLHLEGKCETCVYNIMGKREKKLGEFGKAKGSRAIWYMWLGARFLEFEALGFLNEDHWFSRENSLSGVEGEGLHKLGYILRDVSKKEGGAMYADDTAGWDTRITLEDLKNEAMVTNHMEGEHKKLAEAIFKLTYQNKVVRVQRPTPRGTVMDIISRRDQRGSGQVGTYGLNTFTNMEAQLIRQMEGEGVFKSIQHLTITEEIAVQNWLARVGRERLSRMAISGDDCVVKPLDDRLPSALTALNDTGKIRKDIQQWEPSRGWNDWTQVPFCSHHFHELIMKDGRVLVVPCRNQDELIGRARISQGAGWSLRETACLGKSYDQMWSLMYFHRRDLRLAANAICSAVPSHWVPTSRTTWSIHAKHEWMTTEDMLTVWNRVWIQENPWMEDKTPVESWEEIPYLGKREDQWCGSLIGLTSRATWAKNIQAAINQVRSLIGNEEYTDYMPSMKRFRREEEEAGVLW
# [3] = target: T1, Sentrin-specific protease 6 (Homo sapiens, UniProt Q9GZR1); experiment: SAR Analysis of small molecule inhibitors of Sentrin-specific protease 6 (SENP6) using a Luminescent assay. [Related pubchem assays (depositor defined):AID2582, AID2599]
# T1 sequence (Q9GZR1 whole entry): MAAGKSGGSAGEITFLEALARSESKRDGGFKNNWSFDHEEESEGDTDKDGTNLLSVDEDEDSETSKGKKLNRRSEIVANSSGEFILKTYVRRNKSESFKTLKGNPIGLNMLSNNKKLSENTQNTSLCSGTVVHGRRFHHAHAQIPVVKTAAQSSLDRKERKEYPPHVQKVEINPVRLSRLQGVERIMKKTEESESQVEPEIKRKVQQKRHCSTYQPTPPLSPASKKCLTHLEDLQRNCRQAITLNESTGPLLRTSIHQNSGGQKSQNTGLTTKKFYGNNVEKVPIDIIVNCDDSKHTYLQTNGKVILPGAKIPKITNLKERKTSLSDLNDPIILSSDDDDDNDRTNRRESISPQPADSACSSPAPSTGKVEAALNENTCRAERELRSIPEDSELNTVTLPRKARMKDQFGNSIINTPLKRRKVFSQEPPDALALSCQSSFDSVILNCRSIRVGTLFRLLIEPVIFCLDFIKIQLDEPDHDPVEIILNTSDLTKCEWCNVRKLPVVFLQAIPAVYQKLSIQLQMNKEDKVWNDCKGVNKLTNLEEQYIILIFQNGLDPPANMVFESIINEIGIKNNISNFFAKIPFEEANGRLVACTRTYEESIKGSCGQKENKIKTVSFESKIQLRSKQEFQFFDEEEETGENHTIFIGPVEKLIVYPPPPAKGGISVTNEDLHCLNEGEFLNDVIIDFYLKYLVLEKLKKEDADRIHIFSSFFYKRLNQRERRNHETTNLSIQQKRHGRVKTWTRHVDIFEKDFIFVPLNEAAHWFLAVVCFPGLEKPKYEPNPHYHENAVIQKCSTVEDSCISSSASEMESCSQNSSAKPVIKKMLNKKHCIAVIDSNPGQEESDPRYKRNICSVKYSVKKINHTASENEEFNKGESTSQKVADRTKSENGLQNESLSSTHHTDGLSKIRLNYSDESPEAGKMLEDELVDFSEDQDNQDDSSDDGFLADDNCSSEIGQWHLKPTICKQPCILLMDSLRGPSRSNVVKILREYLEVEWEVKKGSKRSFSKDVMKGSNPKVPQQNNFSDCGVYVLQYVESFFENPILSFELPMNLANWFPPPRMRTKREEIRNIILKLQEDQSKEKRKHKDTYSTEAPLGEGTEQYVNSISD
# [4] = target: T2, Sentrin-specific protease 7 (Homo sapiens, UniProt Q9BQF6); experiment: inhibition of human SENP7 cleavage activity – biochemical, luminescence, SAR follow-up (AID 504497)
# T2 sequence (Q9BQF6 whole entry): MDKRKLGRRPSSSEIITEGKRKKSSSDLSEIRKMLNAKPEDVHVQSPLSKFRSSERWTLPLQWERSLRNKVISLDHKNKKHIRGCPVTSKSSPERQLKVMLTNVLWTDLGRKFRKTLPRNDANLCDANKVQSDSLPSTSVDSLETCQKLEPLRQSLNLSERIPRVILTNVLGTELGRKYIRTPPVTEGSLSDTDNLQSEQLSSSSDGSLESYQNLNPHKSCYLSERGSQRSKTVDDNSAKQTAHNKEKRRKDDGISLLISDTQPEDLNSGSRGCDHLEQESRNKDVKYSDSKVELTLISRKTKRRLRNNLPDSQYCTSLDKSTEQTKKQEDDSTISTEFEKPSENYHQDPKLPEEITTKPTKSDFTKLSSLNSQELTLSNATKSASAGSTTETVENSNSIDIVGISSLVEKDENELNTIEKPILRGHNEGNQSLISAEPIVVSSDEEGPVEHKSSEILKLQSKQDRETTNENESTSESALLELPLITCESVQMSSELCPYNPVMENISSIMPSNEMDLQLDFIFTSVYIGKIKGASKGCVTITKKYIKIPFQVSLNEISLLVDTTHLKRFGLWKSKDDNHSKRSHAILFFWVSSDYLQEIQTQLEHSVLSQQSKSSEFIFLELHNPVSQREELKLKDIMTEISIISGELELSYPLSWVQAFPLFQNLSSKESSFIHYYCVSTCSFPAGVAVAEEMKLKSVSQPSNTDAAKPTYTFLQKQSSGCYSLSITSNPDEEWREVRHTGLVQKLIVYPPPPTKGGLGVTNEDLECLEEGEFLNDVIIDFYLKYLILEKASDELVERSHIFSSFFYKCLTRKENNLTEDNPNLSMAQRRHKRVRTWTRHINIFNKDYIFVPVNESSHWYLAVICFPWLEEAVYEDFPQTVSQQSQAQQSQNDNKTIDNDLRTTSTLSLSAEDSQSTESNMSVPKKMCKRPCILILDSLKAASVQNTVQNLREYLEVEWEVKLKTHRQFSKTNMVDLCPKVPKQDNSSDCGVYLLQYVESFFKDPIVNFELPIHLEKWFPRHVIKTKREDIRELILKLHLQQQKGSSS
# [5] = target: T2, Sentrin-specific protease 7; experiment: inhibition of human SENP7 cleavage activity – biochemical, luminescence, set 2, SAR follow-up (AID 588600)
# [6] = target: T3, Sentrin-specific protease 8 (Homo sapiens, UniProt Q96LD8); experiment: inhibition of sentrin protease 8 – biochemical, luminescence, set 2, SAR follow-up (AID 588601)
# T3 sequence (Q96LD8 whole entry): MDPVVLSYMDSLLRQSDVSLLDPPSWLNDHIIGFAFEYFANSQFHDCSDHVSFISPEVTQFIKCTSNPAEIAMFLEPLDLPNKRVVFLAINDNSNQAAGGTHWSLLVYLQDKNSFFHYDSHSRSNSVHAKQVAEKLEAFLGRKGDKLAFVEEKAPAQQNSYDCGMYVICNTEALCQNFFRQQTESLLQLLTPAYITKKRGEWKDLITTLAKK
# [7] = target: T3, Sentrin-specific protease 8; experiment: inhibition of human SENP8 cleavage activity – biochemical, luminescence, SAR follow-up (AID 504501)
# [8] = target: T1, Sentrin-specific protease 6; experiment: inhibition of human SENP6 catalytic domain – biochemical, luminescence, set 2, SAR follow-up (AID 588598)
# Caspase-3 [9] = target: T4, Caspase-3 (Homo sapiens, UniProt P42574); experiment: inhibition of recombinant caspase-3 activity – biochemical, luminescence, set 2, selectivity assay for SENP protease inhibitor project, SAR follow-up (AID 588599)
# T4 sequence (P42574 whole entry): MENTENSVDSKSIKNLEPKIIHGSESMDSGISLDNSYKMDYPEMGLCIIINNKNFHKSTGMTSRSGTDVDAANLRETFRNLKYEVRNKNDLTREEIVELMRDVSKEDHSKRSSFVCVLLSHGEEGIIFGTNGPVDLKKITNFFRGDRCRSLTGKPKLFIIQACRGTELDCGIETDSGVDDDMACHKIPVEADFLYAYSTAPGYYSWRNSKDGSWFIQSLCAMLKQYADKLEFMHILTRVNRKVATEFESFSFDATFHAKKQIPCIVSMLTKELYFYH
# Caspase-3 [10] = target: T4, Caspase-3; experiment: SAR Analysis of small molecule inhibitors of Sentrin-specific proteases (SENPs) using a Caspase-3 Selectivity assay. [Related pubchem assays (depositor defined):AID2540, AID2599, AID434973, AID489001]
# [11] = target: Glycogen synthase kinase-3 beta (Homo sapiens, UniProt P49841); experiment: inhibition of human GSK3B activity – biochemical, microfluidics, dry powder samples, set 2, dose response (AID 623989)
# Sequence of Glycogen synthase kinase-3 beta (P49841 whole entry): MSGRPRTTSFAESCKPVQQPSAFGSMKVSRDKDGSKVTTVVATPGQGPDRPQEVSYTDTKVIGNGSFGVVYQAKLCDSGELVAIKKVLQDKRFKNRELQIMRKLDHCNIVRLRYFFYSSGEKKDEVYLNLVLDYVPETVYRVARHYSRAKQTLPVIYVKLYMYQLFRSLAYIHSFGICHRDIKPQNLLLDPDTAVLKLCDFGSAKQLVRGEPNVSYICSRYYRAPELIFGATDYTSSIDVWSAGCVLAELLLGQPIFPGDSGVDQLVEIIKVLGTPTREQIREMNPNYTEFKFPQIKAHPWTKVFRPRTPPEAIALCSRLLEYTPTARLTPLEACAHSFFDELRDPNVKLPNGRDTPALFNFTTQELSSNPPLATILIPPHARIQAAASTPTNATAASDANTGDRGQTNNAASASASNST
# [12] = target: Tyrosine-protein kinase Blk (Homo sapiens, UniProt P51451);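 note: obtained as one member of a kinome-wide kinase assay panel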
# Sequence of Tyrosine-protein kinase Blk (P51451 whole entry): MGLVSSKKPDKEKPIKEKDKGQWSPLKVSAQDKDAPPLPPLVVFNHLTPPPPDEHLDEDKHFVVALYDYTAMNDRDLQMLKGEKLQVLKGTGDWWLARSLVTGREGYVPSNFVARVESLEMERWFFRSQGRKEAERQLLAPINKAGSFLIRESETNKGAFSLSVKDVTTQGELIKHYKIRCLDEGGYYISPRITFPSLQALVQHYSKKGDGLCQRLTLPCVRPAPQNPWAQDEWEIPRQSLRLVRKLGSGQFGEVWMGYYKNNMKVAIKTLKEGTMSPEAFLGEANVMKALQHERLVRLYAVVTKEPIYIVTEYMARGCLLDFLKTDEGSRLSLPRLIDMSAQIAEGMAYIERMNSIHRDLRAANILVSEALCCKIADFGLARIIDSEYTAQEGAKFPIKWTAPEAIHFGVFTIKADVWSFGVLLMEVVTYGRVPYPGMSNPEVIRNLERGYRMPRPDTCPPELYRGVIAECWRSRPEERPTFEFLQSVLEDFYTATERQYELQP
# [13] = target: Mast/stem cell growth factor receptor Kit (Homo sapiens, UniProt P10721);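 note: KIT entry within a kinase panel assay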
# Sequence of Mast/stem cell growth factor receptor Kit (P10721 whole entry): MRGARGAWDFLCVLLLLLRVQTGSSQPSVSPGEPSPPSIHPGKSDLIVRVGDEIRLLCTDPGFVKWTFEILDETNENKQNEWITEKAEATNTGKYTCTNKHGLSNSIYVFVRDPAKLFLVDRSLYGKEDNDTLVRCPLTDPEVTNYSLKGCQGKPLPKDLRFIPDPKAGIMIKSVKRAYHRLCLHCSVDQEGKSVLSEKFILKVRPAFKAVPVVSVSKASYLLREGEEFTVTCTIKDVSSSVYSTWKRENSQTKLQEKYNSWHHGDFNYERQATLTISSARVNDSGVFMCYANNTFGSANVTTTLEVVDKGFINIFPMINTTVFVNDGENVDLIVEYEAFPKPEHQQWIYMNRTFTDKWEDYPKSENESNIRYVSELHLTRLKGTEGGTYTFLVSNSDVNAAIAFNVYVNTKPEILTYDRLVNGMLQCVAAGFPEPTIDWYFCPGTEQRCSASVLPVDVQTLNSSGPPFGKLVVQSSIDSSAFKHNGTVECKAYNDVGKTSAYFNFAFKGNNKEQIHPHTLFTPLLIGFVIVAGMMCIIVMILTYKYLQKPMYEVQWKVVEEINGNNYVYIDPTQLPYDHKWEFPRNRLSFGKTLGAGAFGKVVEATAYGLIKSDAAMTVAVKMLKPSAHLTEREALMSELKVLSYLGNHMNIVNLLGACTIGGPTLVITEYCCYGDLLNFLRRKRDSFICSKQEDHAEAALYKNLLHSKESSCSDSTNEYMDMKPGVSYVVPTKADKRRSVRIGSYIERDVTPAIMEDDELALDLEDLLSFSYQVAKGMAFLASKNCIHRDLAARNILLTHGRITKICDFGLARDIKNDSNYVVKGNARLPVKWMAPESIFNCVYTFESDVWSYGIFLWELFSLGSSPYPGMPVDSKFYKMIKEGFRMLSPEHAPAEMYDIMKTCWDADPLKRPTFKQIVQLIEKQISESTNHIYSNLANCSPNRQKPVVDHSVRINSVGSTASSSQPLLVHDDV
# [14] = target: Macrophage colony-stimulating factor 1 receptor (Homo sapiens, UniProt P07333);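 note: value comes from the Navigating the Kinome screening panel, CSF1R member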
# [15] = target: Tyrosine-protein kinase ABL1 (Homo sapiens, UniProt P00519)
# [16] = target: Protein disulfide-isomerase (Homo sapiens, UniProt P07237); experiment: inhibition of PDI-driven insulin aggregation – biochemical, turbidity, absorbance, cherry-picked samples, dose response (AID 602350)
# Sequence of Protein disulfide-isomerase (P07237 whole entry): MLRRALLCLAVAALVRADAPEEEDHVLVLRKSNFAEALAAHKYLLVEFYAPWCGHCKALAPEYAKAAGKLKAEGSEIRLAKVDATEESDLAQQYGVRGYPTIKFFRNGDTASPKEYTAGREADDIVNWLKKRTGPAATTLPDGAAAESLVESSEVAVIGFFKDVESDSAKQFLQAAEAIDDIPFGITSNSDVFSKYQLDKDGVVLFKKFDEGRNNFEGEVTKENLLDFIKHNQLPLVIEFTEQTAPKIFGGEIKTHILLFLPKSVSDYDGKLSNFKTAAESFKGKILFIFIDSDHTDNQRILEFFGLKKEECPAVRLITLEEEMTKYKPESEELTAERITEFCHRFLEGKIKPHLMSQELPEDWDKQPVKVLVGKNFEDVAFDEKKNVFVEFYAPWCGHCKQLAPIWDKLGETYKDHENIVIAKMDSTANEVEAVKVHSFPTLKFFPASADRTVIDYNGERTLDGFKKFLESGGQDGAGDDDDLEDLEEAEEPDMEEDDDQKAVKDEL
# [17] = target: T5, Short transient receptor potential channel 4 (Mus musculus, UniProt Q9QUQ5); experiment: block of DAMGO-driven TRPC4 calcium entry – cell-based, HEK293 TRPC4/mu-opioid, Fluo-4 calcium, dose response (AID 434942);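 note: potency of inhibitors blocking the TRPC4 calcium response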
# T5 sequence (Q9QUQ5 whole entry): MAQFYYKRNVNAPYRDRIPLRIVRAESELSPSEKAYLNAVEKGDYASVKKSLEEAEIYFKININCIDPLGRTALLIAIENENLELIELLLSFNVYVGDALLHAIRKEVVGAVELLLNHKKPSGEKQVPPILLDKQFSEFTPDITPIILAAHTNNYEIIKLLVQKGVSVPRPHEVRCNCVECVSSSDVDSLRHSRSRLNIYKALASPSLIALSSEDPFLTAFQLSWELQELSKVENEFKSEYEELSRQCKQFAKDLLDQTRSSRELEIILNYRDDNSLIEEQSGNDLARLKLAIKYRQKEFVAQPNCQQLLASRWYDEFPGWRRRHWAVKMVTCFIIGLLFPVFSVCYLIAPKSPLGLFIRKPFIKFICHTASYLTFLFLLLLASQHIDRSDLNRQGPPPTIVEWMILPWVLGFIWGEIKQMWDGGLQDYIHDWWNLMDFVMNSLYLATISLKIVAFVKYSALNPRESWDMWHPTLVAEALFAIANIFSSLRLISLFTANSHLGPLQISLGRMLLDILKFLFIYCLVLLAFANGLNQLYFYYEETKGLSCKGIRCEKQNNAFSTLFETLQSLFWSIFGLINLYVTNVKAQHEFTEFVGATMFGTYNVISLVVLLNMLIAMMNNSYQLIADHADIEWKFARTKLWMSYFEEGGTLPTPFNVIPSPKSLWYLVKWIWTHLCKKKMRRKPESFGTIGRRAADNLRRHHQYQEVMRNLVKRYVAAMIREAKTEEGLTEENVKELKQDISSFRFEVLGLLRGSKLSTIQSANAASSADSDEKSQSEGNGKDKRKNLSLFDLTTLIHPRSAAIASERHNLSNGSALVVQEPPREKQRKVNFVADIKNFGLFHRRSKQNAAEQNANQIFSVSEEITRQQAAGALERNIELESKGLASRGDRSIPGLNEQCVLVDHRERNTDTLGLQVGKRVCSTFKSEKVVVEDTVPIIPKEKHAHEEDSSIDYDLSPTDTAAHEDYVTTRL
# [18] = Vero cell cytotoxicity, dose response, cytotoxicity control for M. tuberculosis growth inhibitor project, Vero cells, purified and synthesized compounds, set 5 (AID 504909); conditions: Mycobacterium tuberculosis
# [19] = THP-1 cell cytotoxicity, cytotoxicity control, set 4 (AID 504911); conditions: Mycobacterium tuberculosis
# [20] = Vero cell cytotoxicity, dose response, cytotoxicity control for M. tuberculosis growth inhibitor project, Vero cells, purified and synthesized compounds, set 4 (AID 504854); conditions: Mycobacterium tuberculosis
# [21] = THP-1 cell cytotoxicity, dose response, cytotoxicity control, set 3 (AID 504852); conditions: Mycobacterium tuberculosis
# [22] = target: DNA dC->dU-editing enzyme APOBEC-3G (Homo sapiens, UniProt Q9HC16); experiment: inhibition of APOBEC3G ssDNA deamination – biochemical, fluorescence, single-stranded DNA substrate, SAR follow-up (AID 602136); conditions: read-out: IC50_Mean
# Sequence of DNA dC->dU-editing enzyme APOBEC-3G (Q9HC16 whole entry): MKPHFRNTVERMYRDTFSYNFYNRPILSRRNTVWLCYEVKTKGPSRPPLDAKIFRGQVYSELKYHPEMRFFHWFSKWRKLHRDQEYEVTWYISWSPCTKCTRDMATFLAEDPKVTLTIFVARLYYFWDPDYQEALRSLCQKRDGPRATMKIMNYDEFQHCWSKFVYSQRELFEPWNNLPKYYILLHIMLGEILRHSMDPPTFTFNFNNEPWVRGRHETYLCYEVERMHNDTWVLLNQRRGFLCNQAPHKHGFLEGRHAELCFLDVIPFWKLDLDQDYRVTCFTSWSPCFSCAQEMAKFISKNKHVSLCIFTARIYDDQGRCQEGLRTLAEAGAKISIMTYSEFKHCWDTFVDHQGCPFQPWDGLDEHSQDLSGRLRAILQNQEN
# [23] = target: DNA dC->dU-editing enzyme APOBEC-3A (Homo sapiens, UniProt P31941); experiment: SAR analysis of small molecule inhibitors of APOBEC3A DNA Deaminase via a fluorescence-based single-stranded DNA deaminase assay.; conditions: read-out: IC50_Mean
# Sequence of DNA dC->dU-editing enzyme APOBEC-3A (P31941 whole entry): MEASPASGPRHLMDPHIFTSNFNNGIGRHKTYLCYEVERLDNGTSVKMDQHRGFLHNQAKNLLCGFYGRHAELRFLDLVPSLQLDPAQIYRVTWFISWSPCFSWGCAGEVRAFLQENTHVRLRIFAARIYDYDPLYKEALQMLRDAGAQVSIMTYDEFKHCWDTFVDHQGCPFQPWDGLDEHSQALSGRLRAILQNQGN
# Sequence of Neuropeptides B/W receptor type 1 (P48145 whole entry): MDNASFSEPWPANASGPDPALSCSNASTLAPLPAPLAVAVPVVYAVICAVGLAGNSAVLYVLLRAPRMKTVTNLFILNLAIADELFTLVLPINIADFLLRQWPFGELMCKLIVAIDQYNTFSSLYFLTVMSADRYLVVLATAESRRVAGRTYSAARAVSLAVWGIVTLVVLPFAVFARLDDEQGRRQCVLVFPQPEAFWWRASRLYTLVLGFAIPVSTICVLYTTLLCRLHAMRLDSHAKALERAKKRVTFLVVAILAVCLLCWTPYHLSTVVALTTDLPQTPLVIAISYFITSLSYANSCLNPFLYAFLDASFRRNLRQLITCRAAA
compound,measurement,setting,value
N#CC(c1cccc(Cl)c1)c1c(Cl)cnn(Cc2cccc3ccccc23)c1=O (stereo not given),IC50,[1],0.26 µM (active)
same,IC50,[2],0.26 µM (active)
O=S(=O)(N=C1C=CC(=NS(=O)(=O)c2ccccc2)c2ccccc21)c1ccccc1,CC50,Vero,34.1 µM (active)
same,IC50,Genome polyprotein,19.1 µM (active)
Fc1ccc(/C=C/c2nc(-c3ccccc3)no2)cc1,IC50,[3],2.1 µM (active)
same,IC50,[4],1.7 µM (active)
same,IC50,[5],2.09 µM (active)
same,IC50,[6],1.81 µM (active)
same,IC50,[7],16 µM (active)
same,IC50,[8],1.83 µM (active)
same,IC50,Caspase-3 [9],3.02 µM (active)
same,IC50,Caspase-3 [10],5 µM (active)
COc1ccc(/C=C2\SC(NCc3ccccc3)=NC2=O)cc1,AC50,[11],6.02 µM (active)
Cc1cc(C)cc(NC(=O)Nc2ccc(-c3ccnc4c3c(N)nn4C)cc2)c1,Ki,[12],0.794 µM (active)
same,Ki,[13],0.001 µM (active)
same,Ki,[14],0.002 µM (active)
same,Ki,[15],> 0.631 µM (inactive)
CC(Cc1ccccc1Sc1ccccc1O)N(C)C (stereo not given),AC50,[16],15.9 µM (active)
same,EC50,[17],0.944 µM (active)
COc1cccc(NC(=O)CSc2nc3ccccc3c(=O)[nH]2)c1,CC50,[18],> 100 µM (active)
same,CC50,[19],> 100 µM (active)
same,CC50,[20],> 100 µM (active)
same,CC50,[21],> 100 µM (active)
Cc1ccc(N2C(=O)C(=O)N(CC(=O)c3ccc[nH]3)C2=O)c(C)c1,IC50,[22],> 99 µM (inactive)
same,IC50,[23],> 99 µM (inactive)
